Test results as given in paper PMC3161871, “Heteroarylketones inhibit astroglial interleukin-6 expression via a STAT3/NF-κB signaling pathway” (Journal of Neuroinflammation, 2011).

Legend:
[1] = test system: IL-6 release from U343 cells; experiment: Dose-dependent stimulation of IL-6 release by OSM in U343 cells (ELISA); format: cell-based, human; conditions: U343 cells treated 24 h with OSM, ELISA of conditioned medium
Protocol: (§1) The human glioma cell line U343 [34] was maintained in DMEM containing 10% fetal bovine serum and 60 μg/ml gentamycin (Invitrogen, Darmstadt, Germany) at 37°C in a 10% CO2 atmosphere.
Measurements of IL-6 in conditioned medium and murine plasma samples were done by means of human- or murine-specific IL-6 Cytoset kits (Invitrogen, Darmstadt, Germany) according to manufacturer's protocols.
The dose- and time-dependent stimulation of IL-6 expression by OSM in U343 cells is characterized in figure 1. To analyze dose dependence of IL-6 release, U343 cells were treated for 24 hours with various concentrations of OSM followed by measurement of IL-6 protein concentrations in the conditioned medium by a specific ELISA. […] Therefore, all further investigations were performed with 100 ng/ml OSM. The highest dose of 200 ng/ml OSM led to 30-fold increase of IL-6 accumulation in the conditioned media in comparison to vehicle-treated cells.
Figure 1 OSM induces dose- and time-dependent IL-6 expression in human U343 glioma cells. OSM treatment leads to dose-dependent IL-6 release (A). U343 cells were stimulated with different concentrations of OSM as indicated. After 24 hours the conditioned medium was analyzed by IL-6-specific ELISA. […] IL-6 mRNA expression was analyzed by qRT-PCR (dotted line, black triangles) and IL-6 protein release by ELISA (solid line, black squares). […]

[2] = test system: IL-6 mRNA expression in U343 cells; experiment: OSM-induced IL-6 mRNA expression in U343 cells (qRT-PCR time course); format: cell-based, human; conditions: 100 ng/ml OSM
Protocol: as §1
Total RNA of cultured cells and homogenized mouse brain tissue samples was isolated using RNA isolation kit "NucleoSpin RNA II" from Macherey and Nagel. RNA quantity was measured by spectrophotometrical quantification (NanoDrop 2000, Peqlab, Erlangen, Germany). Total RNA (0.5 μg) was transcribed to cDNA using Superscript III and oligo-dT primer (Invitrogen, Darmstadt, Germany). Quantitative real-time PCR was performed with QuantiFast SYBR Green PCR Master mix (Qiagen, Hilden, Germany) using Rotorgene 3000 system (Corbett, Sydney, Australia). Gene expression was normalized to the expression of three reference genes glyceraldehyde 3-phosphate dehydrogenase (GAPDH), glucose-6-phosphate dehydrogenase (G6PDH) and hypoxanthine-guanine phosphoribosyltransferase (HPRT). Primers for PREP (5'-[…]-3'; 5'- […]-3') and IL-6 (5'-AAAGGACGTCACATTGCA-3'; 5'-[…]-3') were designed using the Primer3 Software (http://frodo.wi.mit.edu/). Data were analyzed by Rotorgene 3000 Software version 6.0 by comparative quantitation. The appropriate size of PCR products was confirmed by gel-electrophoresis stained with ethidium bromide.
To analyze the time-course of OSM-induced IL-6 expression, U343 cells were incubated with OSM for different periods of time as indicated in figure 1B. Amounts of IL-6 mRNA and protein were subsequently quantified by qRT-PCR and by ELISA, respectively. […] Significant induction of IL-6 protein was detected in the conditioned medium as early as 3 h post stimulation and reaching a maximum at 24 h.
To reveal whether bioactivity of HAK compounds is based on suppression of IL-6 protein biosynthesis or on interference with IL-6 mRNA expression OSM-treated U343 cells were incubated with 20 μM of compound HAK-2 for different periods of time. […] Therefore, it is very likely that the relevant molecular target of HAK compounds is involved in the OSM-induced signal transduction process not earlier than 6 h after onset of the stimulation.
Figure 4 Time course of OSM-induced IL-6 mRNA expression in U343 cells treated with compound HAK-2. […] U343 cells were stimulated with 100 ng/ml OSM and treated with 0.1% DMSO as solvent control (solid line, black triangle) or 20 μM HAK-2 (dashed line, white triangle). Samples were harvested at time points indicated to extract total RNA. IL-6 mRNA expression was analyzed by qRT-PCR. All data points are presented as mean ± SD, and were obtained from experiments carried out in quadruplicate. Statistical analysis were performed between control and HAK-2 samples from same time point. ns, not significant; ***p < 0.001.

Oncostatin M [OSM, reference compound]
EC50 of IL-6 release [1]: 0.0705 ± 0.02268 µg/mL | IL-6 mRNA induction, first peak ([2]; 1 h post stimulation): 6.5 fold | IL-6 mRNA induction, second peak ([2]; 16 h post stimulation): 5.5 fold
